Test results: patent US20030203373A1 (priority 2002, published 2003)
Values joined by “and” are separate entries in the source; they are usually repeats but may differ in a detail not shown here. Identical values can stand only once. Ends that are not written are not given here.

Target: T1, ACE from pig kidney (Sus scrofa, UniProt F1RRW5)
T1 construct: 1 mU ACE from pig kidney (EC 3.4.15.1 (Sigma)); purchased Sigma; host or cells: pig kidney (tissue-derived enzyme)
T1 sequence (F1RRW5 34-1309): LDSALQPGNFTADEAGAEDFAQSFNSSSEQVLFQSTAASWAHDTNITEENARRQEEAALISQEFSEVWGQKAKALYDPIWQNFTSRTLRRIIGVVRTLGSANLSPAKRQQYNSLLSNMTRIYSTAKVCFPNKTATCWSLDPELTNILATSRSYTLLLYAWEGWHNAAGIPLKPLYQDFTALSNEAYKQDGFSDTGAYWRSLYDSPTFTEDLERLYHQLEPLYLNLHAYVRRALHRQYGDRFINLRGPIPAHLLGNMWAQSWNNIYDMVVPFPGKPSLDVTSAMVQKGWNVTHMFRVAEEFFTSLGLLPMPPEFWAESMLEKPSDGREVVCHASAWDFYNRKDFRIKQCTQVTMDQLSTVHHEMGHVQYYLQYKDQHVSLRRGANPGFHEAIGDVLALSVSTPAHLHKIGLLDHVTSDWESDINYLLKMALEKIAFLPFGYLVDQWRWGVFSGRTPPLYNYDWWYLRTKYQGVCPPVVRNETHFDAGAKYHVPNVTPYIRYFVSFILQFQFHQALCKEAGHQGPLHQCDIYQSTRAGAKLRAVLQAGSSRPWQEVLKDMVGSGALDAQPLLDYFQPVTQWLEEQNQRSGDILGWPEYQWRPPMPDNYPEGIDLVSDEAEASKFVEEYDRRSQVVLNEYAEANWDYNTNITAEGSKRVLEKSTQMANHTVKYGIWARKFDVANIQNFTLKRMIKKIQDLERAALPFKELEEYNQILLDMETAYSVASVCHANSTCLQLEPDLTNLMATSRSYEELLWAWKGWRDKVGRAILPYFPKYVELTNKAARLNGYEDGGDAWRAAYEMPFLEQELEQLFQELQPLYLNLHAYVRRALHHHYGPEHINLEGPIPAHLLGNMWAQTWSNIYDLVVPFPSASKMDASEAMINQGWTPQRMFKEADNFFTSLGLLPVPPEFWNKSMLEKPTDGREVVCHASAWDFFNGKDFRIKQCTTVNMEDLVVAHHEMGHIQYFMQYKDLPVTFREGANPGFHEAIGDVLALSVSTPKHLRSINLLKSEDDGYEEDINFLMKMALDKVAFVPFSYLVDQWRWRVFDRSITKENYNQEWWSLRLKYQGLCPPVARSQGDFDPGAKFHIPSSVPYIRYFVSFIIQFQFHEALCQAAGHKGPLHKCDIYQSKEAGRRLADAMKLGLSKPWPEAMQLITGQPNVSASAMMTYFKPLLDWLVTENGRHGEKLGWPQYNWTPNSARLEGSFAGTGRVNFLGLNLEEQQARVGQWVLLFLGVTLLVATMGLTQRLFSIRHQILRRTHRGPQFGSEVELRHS
Assay: biochemical
Format: biochemical
Conditions: for IC50: ACE from pig kidney, determined graphically, read-out: IC50-value (ACE inhibition)
Text: These peptides were investigated for their inhibitory effect using an in vitro-ACE-inhibitor-assay with an angiotensin-converting-enzyme derived from pig kidney. Hippuryl-histidyl-leucin was used as a substrate. […] A concrete experimental description is given below.
The principle of the ACE-inhibition-assay was established by Chejung, H. S., Cushman, D. W.: “Inhibition of homogenous angiotensin converting enzyme of rabbit lung by synthetic venom peptides of Bothrops jararaca.” in Biochimica et Biophysica Acta 293, 451-563 (1973).
The assay was performed in 96 well HTRF-plates (Packard). The concentrations used for each well were:
1 mU ACE from pig kidney (EC 3.4.15.1 (Sigma)) in 30 μl of assay buffer (25 mM HEPES; 0,3 M NaCl, pH 8,2) and 20 μl inhibitor dissolved in assay buffer (0,35-200 μM). The reaction was started by adding 50 μl of 2 mM hippuryl-histidyl-leucin (Sigma) in assay buffer. The reaction was performed at room temperature (22° C.) for 30 minutes and terminated by adding 50 μl of 2 M NaOH. Afterwards 50 μl of 0,5% ortho-phtalaldehyd (Sigma) in methanol were added, 5 minutes later followed by 50 μl of 2,5 M HCl-solution to stabilize the developed fluorescence product.
The results were used to calculate the % inhibition. The IC50-values were determined graphically from a curve showing the dose-reaction ratio.
In order to minimize errors due to time-dependent differences, all pipetting steps were performed in a precise time schedule.

[1] = inhibitor 0.39 μM, replicates A-D
[2] = inhibitor 0.39 μM, replicates A-D, 0.39 µM
[3] = inhibitor 0.78125 μM, replicates A-D
[4] = inhibitor 0.78125 μM, replicates A-D, 0.78125 µM
[5] = inhibitor 1.5625 μM, replicates A-D
[6] = inhibitor 1.5625 μM, replicates A-D, 1.5625 µM
[7] = inhibitor 3.125 μM, replicates A-D
[8] = inhibitor 3.125 μM, replicates A-D, 3.125 µM
[9] = inhibitor 6.25 μM, replicates A-D
[10] = inhibitor 6.25 μM, replicates A-D, 6.25 µM
[11] = inhibitor 12.5 μM, replicates A-D
[12] = inhibitor 12.5 μM, replicates A-D, 12.5 µM
[13] = inhibitor 25 μM, replicates A-D
[14] = inhibitor 25 μM, replicates A-D, 25 µM
[15] = inhibitor 50 μM, replicates A-D
[16] = inhibitor 50 μM, replicates A-D, 50 µM
[17] = inhibitor 100 μM, replicates A-D
[18] = inhibitor 100 μM, replicates A-D, 100 µM
[19] = inhibitor 200 μM, replicates A-D
[20] = inhibitor 200 μM, replicates A-D, 200 µM

Sequence	IC50	fluorescence reading (ACE Inhibitor Assay) [1]	% inhibition (ACE Inhibitor Assay) [2]	fluorescence reading (ACE Inhibitor Assay) [3]	% inhibition (ACE Inhibitor Assay) [4]	fluorescence reading (ACE Inhibitor Assay) [5]	% inhibition (ACE Inhibitor Assay) [6]	fluorescence reading (ACE Inhibitor Assay) [7]	% inhibition (ACE Inhibitor Assay) [8]	fluorescence reading (ACE Inhibitor Assay) [9]	inhibition at 6.25 µM [9]	% inhibition (ACE Inhibitor Assay) [10]	fluorescence reading (ACE Inhibitor Assay) [11]	inhibition at 12.5 µM [11]	% inhibition (ACE Inhibitor Assay) [12]	fluorescence reading (ACE Inhibitor Assay) [13]	inhibition at 25 µM [13]	% inhibition (ACE Inhibitor Assay) [14]	fluorescence reading (ACE Inhibitor Assay) [15]	inhibition at 50 µM [15]	further results
AALSPLPEVPP [Peptide S494]	9 µM	704319 and 727603 and 762908 and 659968	2.56% and −0.67% and −5.59% and 8.74%	643151 and 655606 and 667363 and 633619	9.35% and 7.71% and 12.41%	602329 and 645065 and 664903 and 606137	16.77% and 10.82% and 8.05% and 16.23%	563277 and 547546 and 579178 and 556345	24.4% and 20% and 23.17%	420434 and 435365 and 427540 and 433344	42.1%	40.02% and 41.11% and 40.3%	312590 and 306320 and 319249 and 308116	57.1%	57.99% and 56.19% and 57.74%	193365 and 203903 and 204201 and 188693	73.7%	72.26% and 72.21% and 74.38%	119135 and 120732 and 124777 and 108988	84.1%	inhibition at 0.78125 µM [3]: 11.1%; inhibition at 3.125 µM [7]: 22.2%; % inhibition (ACE Inhibitor Assay) [16]: 83.84% and 83.28% and 85.48%; fluorescence reading (ACE Inhibitor Assay) [17]: 59914 and 62551 and 64312 and 57543; inhibition at 100 µM [17]: 92.3%; % inhibition (ACE Inhibitor Assay) [18]: 91.94% and 91.7% and 92.64%; fluorescence reading (ACE Inhibitor Assay) [19]: 34342 and 34053 and 34364 and 34738; inhibition at 200 µM [19]: 95.9%; % inhibition (ACE Inhibitor Assay) [20]: 95.91% and 95.82%
AGAALSPLPEVPP [Peptide S543]	25 µM	959059 and 985299 and 971597 and 996656	5.2% and 6.53% and 4.1%	946496 and 913444 and 925926 and 981909	8.95% and 12.15% and 10.945% and 5.53%	923507 and 888699 and 915925 and 980940	11.18% and 14.54% and 11.9% and 5.62%	868636 and 880388 and 856283 and 938801	15.35% and 17.68% and 9.7%	816251 and 788199 and 773151 and 833135	21.6%	24.26% and 25.72% and 19.92%	683603 and 714973 and 720213 and 700323	34.4%	31.35% and 30.84% and 32.76%	519515 and 531562 and 515233 and 534895	50.2%	49.09% and 50.66% and 48.76%	362416 and 357767 and 358975 and 367216	65.5%	inhibition at 0.39 µM [1]: 7.74%; inhibition at 3.125 µM [7]: 16.5%; % inhibition (ACE Inhibitor Assay) [16]: 65.9% and 65.78% and 64.98%; fluorescence reading (ACE Inhibitor Assay) [17]: 211437 and 206169 and 209393 and 219372; inhibition at 100 µM [17]: 80%; % inhibition (ACE Inhibitor Assay) [18]: 80.56% and 80.25% and 79.28%; fluorescence reading (ACE Inhibitor Assay) [19]: 107628 and 110019 and 108841 and 111945; inhibition at 200 µM [19]: 90.1%; % inhibition (ACE Inhibitor Assay) [20]: 89.95% and 89.97% and 89.67%
EAGAALSPLPEVPP [Peptide S542]	38 µM	930945 and 967806 and 1003456 and 906307	4.59% and 0.79% and −2.87% and 7.13%	910838 and 902555 and 939597 and 880680	6.66% and 7.52% and 3.7% and 9.77%	794214 and 874684 and 882788 and 794177	10.39% and 9.55%	821478 and 820849 and 868901 and 796263	15.93% and 10.98% and 18.47%	801078 and 799975 and 802324 and 795040	18%	18.08% and 17.84% and 18.59%	719799 and 744223 and 765229 and 709216	26.3%	23.83% and 21.66% and 27.43%	609106 and 591988 and 618193 and 569641	37.8%	39.51% and 36.81% and 41.81%	424530 and 419325 and 440093 and 406539	56.8%	inhibition at 1.5625 µM [5]: 18.7%; inhibition at 3.125 µM [7]: 15.9%; % inhibition (ACE Inhibitor Assay) [16]: 57.3% and 55.16% and 58.61%; fluorescence reading (ACE Inhibitor Assay) [17]: 273140 and 278465 and 286263 and 274375; inhibition at 100 µM [17]: 72.3%; % inhibition (ACE Inhibitor Assay) [18]: 71.8% and 71% and 72.23%; fluorescence reading (ACE Inhibitor Assay) [19]: 167517 and 173807 and 184836 and 169891; inhibition at 200 µM [19]: 83.2%; % inhibition (ACE Inhibitor Assay) [20]: 82.59% and 81.45% and 82.99%
GAALSPLPEVPP [Peptide S544]	29 µM	841511 and 894833 and 882762 and 936430	9.4% and 3.63% and 4.93% and −0.88%	853374 and 881105 and 872351 and 929364	8.12% and 5.11% and 6.06% and −0.11%	864708 and 811879 and 787983 and 930998	6.89% and 12.61% and 15.2% and −0.29%	822128 and 840019 and 799408 and 883161	11.5% and 9.56% and 13.96% and 4.89%	670407 and 719205 and 725919 and 735049	27.9%	22.66% and 21.93% and 20.94%	668628 and 658367 and 643614 and 684354	28.1%	29.25% and 30.85% and 26.43%	494831 and 495043 and 522915 and 521311	47%	46.95% and 43.93% and 44.1%	263679 and 261020 and 262784 and 286592	72%	% inhibition (ACE Inhibitor Assay) [16]: 72.3% and 72.12% and 69.54%; fluorescence reading (ACE Inhibitor Assay) [17]: 154967 and 152193 and 156501 and 158918; inhibition at 100 µM [17]: 83.8%; % inhibition (ACE Inhibitor Assay) [18]: 84.1% and 83.63% and 83.37%; fluorescence reading (ACE Inhibitor Assay) [19]: 92239 and 93028 and 95574 and 94363; inhibition at 200 µM [19]: 90.6%; % inhibition (ACE Inhibitor Assay) [20]: 90.51% and 90.23% and 90.34%
